In ChEMBL document CHEMBL3751695, “Cationic lipid-conjugated hydrocortisone as selective antitumor agent” (Eur J Med Chem, 2016):
pIC50: −log10 of the molar value. Active and inactive are the calls of the source. The rule behind the calls is not given here.

What was measured:
RAW264.7 [1] = assay: Cytotoxicity against mouse RAW264.7 cells after 72 hrs by MTT assay; format: cell-based; conditions: RAW264.7, 72 h
[2] = Cell cycle arrest in mouse B16F10 cells assessed as accumulation at G1 phase at 20 uM after 24 hrs by propidium iodide staining based flow cytometry (reference value: 38.8 %); format: functional; conditions: B16-F10
[3] = Induction of apoptosis in mouse NIH/3T3 cells assessed as early apoptotic cells at 20 uM after 24 hrs by annexin-V-FITC/propidium iodide staining based flow cytometry (reference value: 0.43 %); format: cell-based; conditions: nih3t3, 24 h
RAW264.7 [4] = assay: Induction of apoptosis in mouse RAW264.7 cells assessed as late apoptotic cells at 20 uM after 24 hrs by annexin-V-FITC/propidium iodide staining based flow cytometry (reference value: 5.64 %); format: cell-based; conditions: raw264.7, 24 h
[5] = Cytotoxicity against mouse B16F10 cells after 72 hrs by MTT assay; format: functional, cell-based; conditions: B16-F10, 72 h
A549 [6] = assay: Induction of apoptosis in human A549 cells assessed as necrotic cells at 20 uM after 24 hrs by annexin-V-FITC/propidium iodide staining based flow cytometry (reference value: 3.23 %); format: functional
[7] = Cell cycle arrest in mouse B16F10 cells assessed as accumulation at S phase at 20 uM after 24 hrs by propidium iodide staining based flow cytometry (reference value: 5.4 %); format: functional; conditions: B16-F10
B16-F10 [8] = assay: Induction of apoptosis in mouse B16F10 cells assessed as increased Bax expression at 20 uM after 36 hrs by western blot analysis; format: functional, cell-based
B16-F10 [9] = assay: Induction of apoptosis in mouse B16F10 cells assessed as increase in ratio of Bax/Bcl2 level at 20 uM after 36 hrs by western blot analysis (reference value: 0.2); format: functional
B16-F10 [10] = assay: Induction of apoptosis in mouse B16F10 cells assessed as increase in cleaved caspase 3 level at 20 uM after 36 hrs by western blot analysis; format: functional, cell-based
MCF7 = assay: Cytotoxicity against human MCF7 cells after 72 hrs by MTT assay; format: functional, cell-based; conditions: MCF7, 72 h
B16-F10 [11] = assay: Induction of apoptosis in mouse B16F10 cells assessed as necrotic cells at 20 uM after 24 hrs by annexin-V-FITC/propidium iodide staining based flow cytometry (reference value: 1.41 %); format: functional
[12] = Cell cycle arrest in mouse B16F10 cells assessed as accumulation at G2/M phase at 20 uM after 24 hrs by propidium iodide staining based flow cytometry (reference value: 15.2 %); format: functional; conditions: B16-F10
Gallus gallus = organism: Gallus gallus; assay: Antiangiogenic activity in chicken embryo assessed as inhibition of neovascularization at 40 uM after 4 hrs by microscopic analysis; format: functional, tissue-based
[13] = Toxicity in C57BL/J mouse xenografted with mouse B16F10 cells assessed as mortality rate at 6.11 mg/kg, ip measured 45 days after tumor inoculation; format: organism-based, B16-F10; conditions: in vivo, read-out: Activity
[14] = Induction of apoptosis in mouse RAW264.7 cells assessed as viable cells at 20 uM after 24 hrs by annexin-V-FITC/propidium iodide staining based flow cytometry (reference value: 89.11 %); format: cell-based; conditions: read-out: Activity
[15] = Cell cycle arrest in mouse B16F10 cells assessed as accumulation at subG0/G1 phase at 20 uM after 24 hrs by propidium iodide staining based flow cytometry (reference value: 40.7 %); format: functional; conditions: B16-F10
[16] = Cytotoxicity against human SKOV3 cells after 72 hrs by MTT assay; format: functional, cell-based; conditions: SK-OV-3, 72 h
B16-F10 [17] = assay: Induction of apoptosis in mouse B16F10 cells assessed as late apoptotic cells at 20 uM after 24 hrs by annexin-V-FITC/propidium iodide staining based flow cytometry (reference value: 4.47 %); format: functional
B16-F10 [18] = assay: Induction of apoptosis in mouse B16F10 cells assessed as increase in p53 expression at 20 uM after 36 hrs by […]; format: functional, cell-based
B16-F10 [19] = assay: Induction of apoptosis in mouse B16F10 cells assessed as viable cells at 20 uM after 24 hrs by annexin-V-FITC/propidium iodide staining based flow cytometry (reference value: 93.66 %); format: functional; conditions: B16-F10, 24 h, read-out: Activity
[20] = Induction of apoptosis in mouse NIH/3T3 cells assessed as late apoptotic cells at 20 uM after 24 hrs by annexin-V-FITC/propidium iodide staining based flow cytometry (reference value: 0.28 %); format: cell-based; conditions: nih3t3, 24 h
[21] = Cytotoxicity against mouse NIH/3T3 cells after 72 hrs by MTT assay; format: cell-based; conditions: NIH3T3, 72 h
MDA-MB-231 [22] = assay: Induction of apoptosis in human MDA-MB-231 cells assessed as necrotic cells at 20 uM after 24 hrs by annexin-V-FITC/propidium iodide staining based flow cytometry (reference value: 5.40 %); format: functional
[23] = Induction of apoptosis in mouse NIH/3T3 cells assessed as necrotic cells at 20 uM after 24 hrs by annexin-V-FITC/propidium iodide staining based flow cytometry (reference value: 0.24 %); format: cell-based; conditions: nih3t3, 24 h
MDA-MB-231 [24] = assay: Induction of apoptosis in human MDA-MB-231 cells assessed as viable cells at 20 uM after 24 hrs by annexin-V-FITC/propidium iodide staining based flow cytometry (reference value: 90.77 %); format: functional; conditions: MDA-MB-231, 24 h, read-out: Activity
MDA-MB-231 [25] = assay: Induction of apoptosis in human MDA-MB-231 cells assessed as early apoptotic cells at 20 uM after 24 hrs by annexin-V-FITC/propidium iodide staining based flow cytometry (reference value: 0.58 %); format: functional
RAW264.7 [26] = assay: Induction of apoptosis in mouse RAW264.7 cells assessed as early apoptotic cells at 20 uM after 24 hrs by annexin-V-FITC/propidium iodide staining based flow cytometry (reference value: 3.44 %); format: cell-based; conditions: raw264.7, 24 h
[27] = Antitumor activity in mouse B16F10 cells xenografted in C57BL/J mouse assessed as increase in ratio of Bax/Bcl2 in tumor lysates at 6.11 mg/kg, ip by western blot analysis (reference value: 0.4); format: functional, Neoplasm, B16-F10
A549 [28] = assay: Induction of apoptosis in human A549 cells assessed as late apoptotic cells at 20 uM after 24 hrs by annexin-V-FITC/propidium iodide staining based flow cytometry (reference value: 7.40 %); format: functional
RAW264.7 [29] = assay: Induction of apoptosis in mouse RAW264.7 cells assessed as necrotic cells at 20 uM after 24 hrs by annexin-V-FITC/propidium iodide staining based flow cytometry (reference value: 1.81%); format: cell-based; conditions: raw264.7, 24 h
[30] = Induction of apoptosis in mouse NIH/3T3 cells assessed as viable cells at 20 uM after 24 hrs by annexin-V-FITC/propidium iodide staining based flow cytometry (reference value: 99.06 %); format: cell-based, NIH3T3; conditions: read-out: Activity
A549 [31] = assay: Induction of apoptosis in human A549 cells assessed as early apoptotic cells at 20 uM after 24 hrs by annexin-V-FITC/propidium iodide staining based flow cytometry (reference value: 1.41 %); format: functional
A549 [32] = assay: Cytotoxicity against human A549 cells after 72 hrs by MTT assay; format: functional, cell-based; conditions: A549, 72 h
A549 [33] = assay: Induction of apoptosis in human A549 cells assessed as viable cells at 20 uM after 24 hrs by annexin-V-FITC/propidium iodide staining based flow cytometry (reference value: 87.96 %); format: functional; conditions: A549, 24 h, read-out: Activity
MDA-MB-231 [34] = assay: Induction of apoptosis in human MDA-MB-231 cells assessed as late apoptotic cells at 20 uM after 24 hrs by annexin-V-FITC/propidium iodide staining based flow cytometry (reference value: 3.25 %); format: functional
B16-F10 [35] = assay: Induction of apoptosis in mouse B16F10 cells assessed as early apoptotic cells at 20 uM after 24 hrs by annexin-V-FITC/propidium iodide staining based flow cytometry (reference value: 0.46 %); format: functional
B16-F10 [36] = assay: Antitumor activity against mouse B16F10 cells xenografted in C57BL/J mouse assessed as inhibition of tumor growth at 6.11 mg/kg, ip; format: functional, organism-based
B16-F10 [37] = assay: Induction of apoptosis in mouse B16F10 cells assessed as increase in cytochrome C level at 20 uM after 36 hrs by western blot analysis; format: functional, cell-based
HeLa = assay: Cytotoxicity against human HeLa cells after 72 hrs by MTT assay; format: functional, cell-based
[38] = Cytotoxicity against mouse B16F10 cells at 10 uM after 72 hrs by MTT assay in presence of 10 uM HYD; format: functional, B16-F10
[39] = Cytotoxicity against mouse B16F10 cells at 10 and 20 uM after 72 hrs by MTT assay; format: functional, B16-F10
[40] = Cytotoxicity against mouse B16F10 cells at 20 uM after 72 hrs by MTT assay in presence of 20 uM HYD; format: functional, B16-F10

Molecule `C[C@]12CCC(=O)C=C1CC[C@@H]1[C@@H]2[C@@H](O)C[C@@]2(C)[C@H]1CC[C@]2(O)C(=O)CO` [HYDROCORTISONE] has a pIC50 (RAW264.7 [1]) of under 4.70, an Activity [2] of 20.9% and an Activity [3] of 0.01%. The Activity (RAW264.7 [4]) was 3.13%, the pIC50 [5] was under 4.70 and the Activity (A549 [6]) was 2.97%. For the same molecule, the Activity [7] was 4.6%, the Activity (B16-F10 [8]) was “Active” and the Ratio (B16-F10 [9]) was 0.3. For the same molecule, the Activity (B16-F10 [10]) was “Active”, the pIC50 (MCF7) was under 4.70 and the Activity (B16-F10 [11]) was 1.04%. The Activity [12] was 17.9%, the inhibition (Gallus gallus) was “inactive” and the mortality at 1080 h [13] was 70%. It also gave a viability at 24 h, 20 µM [14] of 93.8%, an Activity [15] of 56.6% and a pIC50 [16] of under 4.70. For the same molecule, the Activity (B16-F10 [17]) was 9.14%, the Activity (B16-F10 [18]) was “Active” and the viability at 20 µM (B16-F10 [19]) was 89%. The Activity [20] was 0.16%, the pIC50 [21] was under 4.70 and the Activity (MDA-MB-231 [22]) was 2.46%. The Activity [23] was 0.1%, the viability at 20 µM (MDA-MB-231 [24]) was 87.4% and the Activity (MDA-MB-231 [25]) was 2.05%. The Activity (RAW264.7 [26]) was 2.39%, the Ratio [27] was 0.8 and the Activity (A549 [28]) was 7.09%. It also gave an Activity (RAW264.7 [29]) of 0.69%, a viability at 24 h, 20 µM [30] of 99.5% and an Activity (A549 [31]) of 1.55%. For the same molecule, the pIC50 (A549 [32]) was under 4.70, the viability at 20 µM (A549 [33]) was 88.4% and the Activity (MDA-MB-231 [34]) was 8.1%. For the same molecule, the Activity (B16-F10 [35]) was 0.77%, the inhibition (B16-F10 [36]) was “Active” and the Activity (B16-F10 [37]) was “Active”. It also gave a pIC50 (HeLa) of under 4.70.

In the case of `CCCCCCCCCC[N+](C)(CCCCCCCCCC)CCNC(=O)[C@@]1(O)CC[C@H]2[C@@H]3CCC4=CC(=O)CC[C@]4(C)[C@H]3[C@@H](O)C[C@@]21C`, the pIC50 (RAW264.7 [1]) was 5.21, the pIC50 [5] was 5.33 and the pIC50 (MCF7) was 5.43. The pIC50 [21] was 5.42 and the pIC50 (A549 [32]) was 4.90.

Molecule `CCCCCCCCCCCCCC[N+](C)(CCCCCCCCCCCCCC)CCNC(=O)[C@@]1(O)CC[C@H]2[C@@H]3CCC4=CC(=O)CC[C@]4(C)[C@H]3[C@@H](O)C[C@@]21C` has a pIC50 (RAW264.7 [1]) of 5.06, a pIC50 [5] of 4.79 and a pIC50 (MCF7) of 4.87. The pIC50 [21] was 5.31 and the pIC50 (A549 [32]) was 5.48.

Work on `CCCCCCCCCCCCCCCC[N+](C)(CCCCCCCCCCCCCCCC)CCNC(=O)OC(C)(C)C.[Cl-]` yielded an Activity [3] of 0.94%, an Activity [38] of 20% and an Activity (RAW264.7 [4]) of 4.18%. For the same molecule, the Activity (A549 [6]) was 1.65%, the Activity [39] was 20% and the Activity (B16-F10 [11]) was 4.16%. For the same molecule, the viability at 24 h, 20 µM [14] was 91.3%, the Activity (B16-F10 [17]) was 12.56% and the viability at 20 µM (B16-F10 [19]) was 81.5%. It also gave an Activity [20] of 0.96%, an Activity [23] of 3.23% and an Activity (RAW264.7 [26]) of 3.66%. It also gave an Activity [40] of 20%, an Activity (A549 [28]) of 13.95% and an Activity (RAW264.7 [29]) of 0.86%. For the same molecule, the viability at 24 h, 20 µM [30] was 94.9%, the Activity (A549 [31]) was 2.7% and the viability at 20 µM (A549 [33]) was 81.7%. The Activity (B16-F10 [35]) was 1.75%.

`CCCCCCCC[N+](C)(CCCCCCCC)CCNC(=O)[C@@]1(O)CC[C@H]2[C@@H]3CCC4=CC(=O)CC[C@]4(C)[C@H]3[C@@H](O)C[C@@]21C` gave a pIC50 (RAW264.7 [1]) of 4.90, a pIC50 [5] of 5.35 and a pIC50 (MCF7) of 5.17. The pIC50 [21] was 5.13 and the pIC50 (A549 [32]) was 4.75.

For `CCCCCCCCCCCC[N+](C)(CCCCCCCCCCCC)CCNC(=O)[C@@]1(O)CC[C@H]2[C@@H]3CCC4=CC(=O)CC[C@]4(C)[C@H]3[C@@H](O)C[C@@]21C`, the pIC50 (RAW264.7 [1]) was 5.40, the pIC50 [5] was 5.47 and the pIC50 (MCF7) was 5.34. It also gave a pIC50 [21] of 5.47 and a pIC50 (A549 [32]) of 5.47.
